Where two headings read alike, the source gives them in different places.
Target: CFTR (Homo sapiens, UniProt P13569)
Assay: Membrane Potential Dye, Enteroid Assay A
Type: cell-based
Conditions: for EC50: read-out: Ent. A EC50
Procedure: Base medium (ADF+++) consisted of Advanced DMEM/Ham's F12, 2 mM Glutamax, 10 mM HEPES, […] penicillin/streptomycin.
Bath 1 Buffer consisted of 1 mM MgCl2, 160 mM NaCl, 4.5 mM KCl, 10 mM HEPES, 10 mM Glucose, 2 mM CaCl2).
Chloride Free Buffer consisted of 1 mM Magnesium Gluconate, 2 mM Calcium Gluconate, 4.5 mM Potassium Gluconate, 160 mM Sodium Gluconate, 10 mM HEPES, 10 mM Glucose.
Bath 1 Dye Solution consisted of Bath 1 Buffer, 0.04% Pluronic F127, 20 μM Methyl Oxonol, 30 μM CaCCinh-A01, 30 μM Chicago Sky Blue.
Chloride Free Dye Solution consisted of Chloride Free Buffer, 0.04% Pluronic F127, 20 μM Methyl Oxonol, 30 μM CaCCinh-A01, 30 μM Chicago Sky Blue.
3. Enteroid Cell Harvesting and Seeding
Cells were recovered in cell recovery solution, collected by centrifugation at 650 rpm for 5 min at 4° C., resuspended in TryPLE and incubated for 5 min at 37° C. Cells were then collected by centrifugation at 650 rpm for 5 min at 4° C. and resuspended in IEMM containing 10 μM ROCK inhibitor (RI).
4. Membrane Potential Dye, Enteroid Assay A
Briefly, cells were washed 5 times in Bath 1 Buffer. Bath 1 Dye Solution was added, and the cells were incubated for 25 min at room temperature. Following dye incubation, cells were washed 3 times in Chloride Free Dye Solution. Chloride transport was initiated by addition of Chloride Free Dye Stimulation Solution and the fluorescence signal was read for 15 min. […] Chloride transport was then expressed as a percentage of the chloride transport following treatment with 3 μM N-[(6-amino-2-pyridyl)sulfonyl]-6-(3-fluoro-5-isobutoxy-phenyl)-2-[(4S)-2,2,4-trimethylpyrrolidin-1-yl]pyridine-3-carboxamide, 3 μM (R)-1-(2,2-difluorobenzo[d][1,3]dioxol-5-yl)-N-(1-(2,3-dihydroxypropyl)-6-fluoro-2-(1-hydroxy-2-methylpropan-2-yl)-1H-indol-5-yl)cyclopropanecarboxamide and 300 nM acute N-[2,4-bis(1,1-dimethylethyl)-5-hydroxyphenyl]-1,4-dihydro-4-oxoquinoline-3-carboxamide triple combination control (% Activity).

Chain of CFTR (P13569 with tags, fused parts or gaps DEL508-508): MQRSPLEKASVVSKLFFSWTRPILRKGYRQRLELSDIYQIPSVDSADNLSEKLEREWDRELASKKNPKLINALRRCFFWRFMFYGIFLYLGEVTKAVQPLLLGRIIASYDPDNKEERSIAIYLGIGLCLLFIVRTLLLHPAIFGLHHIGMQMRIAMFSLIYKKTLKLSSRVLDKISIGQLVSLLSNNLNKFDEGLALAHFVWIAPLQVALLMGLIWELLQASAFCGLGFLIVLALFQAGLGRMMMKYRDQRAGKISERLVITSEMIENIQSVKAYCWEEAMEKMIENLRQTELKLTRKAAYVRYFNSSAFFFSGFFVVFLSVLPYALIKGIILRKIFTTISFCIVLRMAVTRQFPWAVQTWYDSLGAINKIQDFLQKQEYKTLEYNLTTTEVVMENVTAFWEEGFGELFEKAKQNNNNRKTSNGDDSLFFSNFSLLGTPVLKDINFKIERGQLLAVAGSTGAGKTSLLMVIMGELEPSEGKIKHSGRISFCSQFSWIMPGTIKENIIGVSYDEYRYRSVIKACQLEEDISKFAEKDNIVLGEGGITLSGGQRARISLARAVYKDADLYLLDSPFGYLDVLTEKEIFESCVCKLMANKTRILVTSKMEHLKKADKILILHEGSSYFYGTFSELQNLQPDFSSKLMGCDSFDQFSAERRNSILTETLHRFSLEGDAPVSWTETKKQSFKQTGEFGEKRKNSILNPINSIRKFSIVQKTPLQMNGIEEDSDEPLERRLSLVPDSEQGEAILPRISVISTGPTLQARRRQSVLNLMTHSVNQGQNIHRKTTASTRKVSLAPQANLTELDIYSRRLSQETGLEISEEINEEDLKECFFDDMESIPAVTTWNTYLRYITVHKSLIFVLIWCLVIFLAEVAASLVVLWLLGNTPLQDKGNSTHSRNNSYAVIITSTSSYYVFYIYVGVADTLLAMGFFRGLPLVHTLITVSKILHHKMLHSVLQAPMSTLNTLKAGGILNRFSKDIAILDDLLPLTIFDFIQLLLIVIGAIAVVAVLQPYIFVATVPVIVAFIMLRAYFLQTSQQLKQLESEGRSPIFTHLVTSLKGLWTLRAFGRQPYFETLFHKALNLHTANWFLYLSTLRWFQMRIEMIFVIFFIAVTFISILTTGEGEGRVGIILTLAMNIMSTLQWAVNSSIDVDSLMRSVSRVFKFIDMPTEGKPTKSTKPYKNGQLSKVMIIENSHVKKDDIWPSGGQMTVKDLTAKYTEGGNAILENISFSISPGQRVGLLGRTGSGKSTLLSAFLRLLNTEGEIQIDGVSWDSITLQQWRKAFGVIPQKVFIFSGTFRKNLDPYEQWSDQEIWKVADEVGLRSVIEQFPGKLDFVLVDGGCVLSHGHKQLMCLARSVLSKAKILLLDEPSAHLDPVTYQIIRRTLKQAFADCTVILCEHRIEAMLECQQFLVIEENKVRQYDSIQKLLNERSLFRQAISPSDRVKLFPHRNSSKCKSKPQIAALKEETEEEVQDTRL

Row | Structure (SMILES) | Ent. A Max Activity (Table 9) | EC50 (Table 9) [µM] | Ent. A Max Activity (Table 8) | EC50 (Table 8) [µM] | other results
1 | Cc1cccc(C)c1-c1cc2nc(n1)NS(=O)(=O)c1cccc(c1)C(=O)N[C@@H]1CCN(C(=O)CC(C)(C)C)C[C@@H]1O2 (stereo in doubt) [Compound 380] | ++ (++ is 30-60%) | 3 to 30 |  |  | 
2 | Cc1cccc(C)c1-c1cc2nc(n1)NS(=O)(=O)c1cccc(c1)C(=O)NC1(CCCC1)CO2 [Compound 360] |  |  | +++ (+++ is >60%) | < 1 | 
3 | CC(C)C[C@@H]1COc2cc(-c3ccccc3OC(F)(F)F)nc(n2)NS(=O)(=O)c2cccc(c2)C(=O)N1 [Compound 103, (11R)-11-(2-Methylpropyl)-6-[2-(trifluoromethoxy)phenyl]-9-oxa-2λ^6-thia-3,5,12,19-tetraazatricyclo[12.3.1.14,8]nonadeca-1(17),4(19),5,7,14(18),15-hexaene-2,2,13-trione] |  |  |  |  | Ent. A Max Activity (Enteroid Assay A): +++ (+++ is >600%); EC50 (Enteroid Assay A): < 1 µM
4 | CC(C)C[C@@H]1COc2cc(-c3ccccc3CC(C)(C)C)nc(n2)NS(=O)(=O)c2cccc(c2)C(=O)N1 [Compound 332] |  |  |  |  | Ent. A Max Activity (Enteroid Assay A): ++ (++ is 30-60%); EC50 (Enteroid Assay A): < 1 µM
5 | Cc1cccc(C)c1-c1cc2nc(n1)NS(=O)(=O)c1cccc(c1)C(=O)N[C@H](CC(C)C)[C@H](C)O2 [Compound 235] |  |  | +++ (+++ is >60%) | < 1 | 
6 | Cc1ccc(C2CNC(=O)c3cccc(c3)S(=O)(=O)Nc3nc(cc(-c4c(C)cccc4C)n3)O2)cc1 (centres unmarked) [Compound 407] |  |  | +++ (+++ is >60%) | < 1 | 
7 | Cc1cccc(C)c1-c1cc2nc(n1)NS(=O)(=O)c1cccc(c1)C(=O)NCC(c1ccc3ccccc3c1)O2 (centres unmarked) [Compound 253] |  |  | +++ (+++ is >60%) | < 1 | 
8 | Cc1cccc(C)c1-c1cc2nc(n1)NS(=O)(=O)[C@H]1CC[C@H]1C(=O)N[C@H](CC(C)C)CO2 (single isomer, unassigned) [Compound 71] | + (+ is <30%) |  |  |  | 
9 | CC(C)C[C@@H]1COc2cc(C3CCCCC3(C)C)nc(n2)NS(=O)(=O)c2cccc(c2)C(=O)N1 (stereo partly drawn) [Compound 68, (11R)-6-(2,2-Dimethylcyclohexyl)-11-isobutyl-2,2-dioxo-9-oxa-2λ^6-thia-3,5,12,19-tetrazatricyclo[12.3.1.14,8]nonadeca-1(18),4,6,8(19),14,16-hexaen-13-one] | +++ (+++ is >60%) | 1 to 3 |  |  | 
10 | Cc1cccc(C)c1-c1cc2nc(n1)NS(=O)(=O)c1cccc(c1)C(=O)NCC(c1ccc(/C=C/C(C)(C)C)cc1)O2 (centres unmarked) [Compound 23, 10-[4-[(E)-3,3-Dimethylbut-1-enyl]phenyl]-6-(2,6-dimethylphenyl)-2,2-dioxo-9-oxa-2λ^6-thia-3,5,12,19-tetrazatricyclo[12.3.1.14,8]nonadeca-1(18),4(19),5,7,14,16-hexaen-13-one] | +++ (+++ is >60%) | < 1 |  |  | 
11 | Cc1cccc(C)c1-c1cc2nc(n1)NS(=O)(=O)c1cccc(c1)C(=O)N[C@H](CC1CCCCC1)[C@@H](C)O2 [Compound 144] |  |  | +++ (+++ is >60%) | < 1 | 
12 | Cc1cccc(C)c1-c1cc2nc(n1)NS(=O)(=O)c1cccc(c1)C(=O)N[C@@H](CC(F)(F)F)CO2 (single isomer, unassigned) [Compound 94, 6-(2,6-dimethylphenyl)-11-(2,2,2-trifluoroethyl)-9-oxa-2λ^6-thia-3,5,12,19-tetraazatricyclo[12.3.1.14,8]nonadeca-1(17),4(19),5,7,14(18),15-hexaene-2,2,13-trione] | +++ (+++ is >60%) | 1 to 3 |  |  | 
13 | Cc1cccc(C)c1-c1cc2nc(n1)NS(=O)(=O)c1cccc(c1)C(=O)NCC(c1ccc(C3CCC3)cc1)O2 (centres unmarked) [Compound 12, 10-(4-Cyclobutylphenyl)-6-(2,6-dimethylphenyl)-2,2-dioxo-9-oxa-2λ^6-thia-3,5,12,19-tetrazatricyclo[12.3.1.14,8]nonadeca-1(18),4(19),5,7,14,16-hexaen-13-one] | +++ (+++ is >60%) | < 1 |  |  | 
14 | Cc1cccc(C)c1-c1cc2nc(n1)NS(=O)(=O)c1cccc(c1)C(=O)N[C@@H](CC(C)C)CO2 [Compound 491] |  |  |  |  | EC50 (Enteroid Assay A): 1 to 3 µM

From patent US20230382924A1, “MODULATORS OF CYSTIC FIBROSIS TRANSMEMBRANE CONDUCTANCE REGULATOR” (VERTEX PHARMACEUTICALS INCORPORATED, priority 2020, published 2023)
